Series [1] has as its target T1, full-length recombinant rat vitamin D receptor (Rattus norvegicus, UniProt P13053).
T1 construct: Full-length recombinant rat receptor was expressed in E. coli BL21(DE3) Codon Plus RIL cells; histidine tag (C); made in house; host or cells: E. coli BL21(DE3) Codon Plus RIL
T1 sequence (P13053 1-423): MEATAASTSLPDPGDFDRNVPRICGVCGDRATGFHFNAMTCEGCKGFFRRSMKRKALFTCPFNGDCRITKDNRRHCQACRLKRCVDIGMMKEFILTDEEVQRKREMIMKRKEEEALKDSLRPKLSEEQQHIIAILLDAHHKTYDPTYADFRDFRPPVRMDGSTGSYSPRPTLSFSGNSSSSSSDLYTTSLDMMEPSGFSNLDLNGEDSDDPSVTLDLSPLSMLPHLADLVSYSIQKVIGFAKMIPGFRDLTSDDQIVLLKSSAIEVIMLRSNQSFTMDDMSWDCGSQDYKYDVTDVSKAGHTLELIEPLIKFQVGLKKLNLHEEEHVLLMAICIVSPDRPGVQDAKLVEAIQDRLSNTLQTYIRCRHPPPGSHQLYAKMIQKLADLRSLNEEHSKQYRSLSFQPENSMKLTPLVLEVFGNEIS
To be noted: data from U.S. Pat. No. 5,843,928 and J. Med. Chem. 1998, 41, 4662; read-out: Competitive VDR Binding (Ki); cited from earlier work.

Series [2] concerns the target T1, full-length recombinant rat vitamin D receptor. Description: Competitive vitamin D receptor binding. To be noted: for binding to the nuclear vitamin D receptor compared with 1,25(OH)2D3: in words. On the procedure:
The first system was a nickel affinity resin that utilizes the C-terminal histidine tag on this protein. The protein that was eluted from this resin was further purified using ion exchange chromatography (S-Sepharose Fast Flow). Aliquots of the purified protein were quick frozen in liquid nitrogen and stored at −80° C. until use. For use in binding assays, the protein was diluted in TEDK50 (50 mM Tris, 1.5 mM EDTA, pH 7.4, 5 mM DTT, 150 mM KCl) with 0.1% Chaps detergent. The receptor protein and ligand concentration was optimized such that no more than 20% of the added radiolabeled ligand was bound to the receptor.
Radiolabeled and unlabeled ligands were added to 100 μL of the diluted protein at a final ethanol concentration of ≦10%, mixed and incubated overnight on ice to reach binding equilibrium. The following day, 100 μL of hydroxylapatite slurry (50%) was added to each tube and mixed at 10-minute intervals for 30 minutes. The hydroxylapaptite was collected by centrifugation and then washed three times with Tris-EDTA buffer (50 mM Tris, 1.5 mM EDTA, pH 7.4) containing 0.5% Titron X-100. After the final wash, the pellets were transferred to scintillation vials containing 4 mL of Biosafe II scintillation cocktail, mixed and placed in a scintillation counter. Total binding was determined from the tubes containing only radiolabeled ligand.

In series [3] the test system is HL-60 cells. Description: HL-60 differentiation (nitro blue tetrazolium reduction). The class given is cell-based, human. On the procedure: The study drugs were dissolved in ethanol and the concentrations determined using UV spectrophotometry. Serial dilutions were prepared so that a range of drug concentrations could be tested without changing the final concentration of ethanol (≦0.2%) present in the cell cultures.
Human promyelocytic leukemia (HL60) cells were grown in RPMI-1640 medium containing 10% fetal bovine serum. The cells were incubated at 37° C. in the presence of 5% CO2.
HL60 cells were plated at 1.2×10^5 cells/mL. Eighteen hours after plating, cells in duplicate were treated with drug. Four days later, the cells were harvested and a nitro blue tetrazolium reduction assay was performed (Collins et al., J. Exp. Med. (1979) 149:969-974). The percentage of differentiated cells was determined by counting a total of 200 cells and recording the number that contained intracellular black-blue formazan deposits.

The subject of series [4] is 24-hydroxylase (24-OHase) gene promoter in ROS 17/2.8 (bone) cells. Description: In vitro transcription assay (24-hydroxylase promoter luciferase reporter). It is filed as cell-based. The method, then:
Transcription activity was measured in ROS 17/2.8 (bone) cells that were stably transfected with a 24-hydroxylase (24-Ohase) gene promoter upstream of a luciferase reporter gene (Arbour et al., Analytical Biochem. (1998) 255(1):148-154). Cells were given a range of doses. Sixteen hours after dosing the cells were harvested and luciferase activities were measured using a luminometer. RLU=relative luciferase units.

The test system of series [5] is bone calcium mobilization. Description: Bone calcium mobilization (serum calcium). It is filed as in vivo, rat. To be noted: at 780 pM dosage. The method, then:
(§1) Male, weanling Sprague-Dawley rats were placed on Diet 11 (0.47% Ca) diet+AEK oil for one week followed by Diet 11 (0.02% Ca)+AEK oil for 3 weeks. The rats were then switched to a diet containing 0.47% Ca for one week followed by two weeks on a diet containing 0.02% Ca. Dose administration began during the last week on 0.02% calcium diet. Four consecutive intraperitoneal doses were given approximately 24 hours apart. Twenty-four hours after the last dose, blood was collected from the severed neck and the concentration of serum calcium determined as a measure of bone calcium mobilization. The first 10 cm of the intestine was also collected for intestinal calcium transport analysis using the everted gut sac method.

Series [6] deals with intestinal calcium transport. Description: Intestinal calcium transport (everted gut sac). It is filed as in vivo, rat. The conditions noted are these: for Net Intestinal Ca2+ Transport (S/M): S/M = serosal Ca2+/mucosal Ca2+, at 780 pM dosage; for intestinal calcium transport activity compared with 1,25(OH)2D3: rat gut, in words. The method, then: as §1
Setting [7] is: competition with 3H-1,25(OH)2D3, read-out: Ki, binding to the recombinant vitamin D receptor.

Structures are written as SMILES. Entries after “also recorded” stand apart in the source; their conditions may differ. Read-outs that look alike come from different tables or passages of the source.

By Ki is commonly meant a dissociation constant, usually derived from enzyme kinetics or from competition with a known ligand. As a reminder, the melting point is the temperature, or range, at which the solid turns liquid.

For the compound `C=C1C(O)CC(=CC=C2CCCC3(C)C2CCC3C(C)CCCC(C)(C)O)CC1O` [2MD (20S), 2-methylene-19-nor-1α,25-dihydroxyvitamin D3], the Ki in series [1] was 100 pM.

As for `C=C1C(O)CC(=CC=C2CCCC3(C)C2CCC3C(C)C(C)(C)CCC(C)(C)O)CC1O` [MET-1, (20S)-2-methylene-19-nor-22-dimethyl-1α,25-dihydroxyvitamin D3], the Ki in series [2] (setting [7]) was 40 pM. The “binding to the nuclear vitamin D receptor compared with 1,25(OH)2D3” value in series [2] was “approximately equally effective as 1,25-(OH)2D3; also recorded: same affinity as 1,25(OH)2D3”. Also, the EC50 in series [3] (Homo sapiens, HL-60, 96 h, HL-60 cells, 4 days, read-out: concentration inducing the differentiation of HL-60 cells in culture) is 700 pM; in series [3] (present compounds, read-out: HL-60 Differentiation (EC50)), 700 pM; in series [4] (16 h, ROS 17/2.8 cells, 16 hours, read-out: concentration stimulating 24-OHase gene expression in bone cells), 30 pM. Further, the “Net Bone Ca2+ Mobilization” value in series [5] stood at 0.4 mg/dL. Besides, the “Net Intestinal Ca2+ Transport (S/M)” value in series [6] came out at 2.3 S/M. For the same compound, the “intestinal calcium transport activity compared with 1,25(OH)2D3” value in series [6] was “noticeably less active than 1,25-(OH)2D3; also recorded: less potent than 1,25(OH)2D3”.

Compound `C=C1C(O)CC(=CC=C2CCCC3(C)C2CCC3C(C)C(C)(C)CCC(C)(C)O)CC1O` [MET-2, (20R)-2-methylene-19-nor-22-dimethyl-1α,25-dihydroxyvitamin D3] registered a melting point of 154 °C. In series [2] (setting [7]), the Ki worked out at 50 pM. Further, in series [2], the “binding to the nuclear vitamin D receptor compared with 1,25(OH)2D3” value is listed as “equally effective as 1,25-(OH)2D3; also recorded: same affinity as 1,25(OH)2D3”. Besides, the Ki in series [2] (present compounds, read-out: Competitive VDR Binding (Ki)) was determined as 50 pM. Also, in series [3] (HL-60 cells, 4 days, read-out: concentration inducing the differentiation of HL-60 cells in culture), the EC50 was determined as 700 pM. Further, in series [3] (Homo sapiens, HL-60, present compounds, read-out: HL-60 Differentiation (EC50)), the EC50 came to 1000 pM. Moreover, the EC50 in series [4] (ROS 17/2.8 cells, 16 hours, read-out: concentration stimulating 24-OHase gene expression in bone cells) was 30 pM. Moreover, the EC50 in series [4] (present compounds, read-out: 24-OHase Transcription (EC50)) came to 600 pM. In series [4] (relative to 1,25(OH)2D3), the “potency in 24-hydroxylase gene transcription, times more potent than 1,25(OH)2D3” value is recorded as “about three” and the “potency in stimulating 24-OHase gene expression, times less potent than 1,25(OH)2D3” value was “about 3 times”. Moreover, the “Net Bone Ca2+ Mobilization” value in series [5] is 0.2 mg/dL. Further, in series [6], the “Net Intestinal Ca2+ Transport (S/M)” value was 1.2 S/M and the “intestinal calcium transport activity compared with 1,25(OH)2D3” value was “noticeably less active than 1,25-(OH)2D3; also recorded: less potent than 1,25(OH)2D3”.

On to `C=C1C(O)CC(=CC=C2CCCC3(C)C2CCC3C(C)CCCC(C)(C)O)CC1O` [2MD (20R)], for which the Ki in series [1] was 120 pM.

These data come from patent US8604009B2, “(20S)-2-methylene-19-nor-22-dimethyl-1α,25-dihydroxyvitamin D3 and (20R)-2-methylene-19-nor-22-dimethyl-1α,25-hydroxyvitamin D3” (Wisconsin Alumni Research Foundation, priority 2010, dated 2013).
